Results from paper PMC11311998, “AR71, Histamine H3 Receptor Ligand—In Vitro and In Vivo Evaluation (Anti-Inflammatory Activity, Metabolic Stability, Toxicity, and Analgesic Action)” (International Journal of Molecular Sciences, 2024).

Key:
[1] = tested on: rat models of neuropathic pain; parameters: method as in PMID 18164820; conditions: surgically or virus-induced; cited from earlier work
SH-SY5Y cells [2] = assay: mitochondrial membrane potential (JC-10); type: cell-based, human; conditions: 50 μM, 3 h
Protocol: Neurotoxin-like rotenone induces oxidative stress inside cells that might influence mitochondrial membrane potential (MMP). Maintaining unaffected MMP is essential for neuroprotection. In our study, we tested the effect of AR71 on MMP in the presence and absence of rotenone.
Next, the effect of AR71 (0.78 μM) when co-treated with rotenone was tested; 1 μM carbonyl cyanide m-chlorophenylhydrazone (CCCP) was used as a positive control.
The MMP was measured by a commercially available kit (Sigma Aldrich, MAK159, for live cells) that utilises a cationic, lipophilic dye JC-10. It allows for ratiometric analysis of mitochondrial membrane potential, where a shift from orange (λEX/λEM: 540 nm/590 nm) to green fluorescence (λEX/λEM: 490 nm/525 nm) is indicative of compromised mitochondria. For this assay, the SH-SY5Y cells (1 × 10^4 cells/well) were seeded in a black-sided clear bottom 96-well plate (Thermo Scientific Nunclon^TM Delta Surface no. 137101, Denmark) in a complete culture medium. First, to choose the optimal concentration of rotenone in this assay, a dose–response effect of rotenone (0.05, 0.5, 5, 50 μM) was studied. Next, the cells were pre-treated with AR71 (0.78 μM) for 1 h before rotenone stimulation (50 μM) for another 3 h. […] The positive control was carbonyl cyanide m-chlorophenylhydrazone (CCCP; 1 μM)—uncoupling agent on the proton gradient. After incubation, 50 μL/well of the JC-10 dye loading solution was added to each well with cells. The plate was incubated for 45 min in the incubator. Then, 50 μL/well of Assay Buffer B was added to each well, and the fluorescence was monitored immediately. The red/green fluorescence intensity ratio was used to calculate the results.

SH-SY5Y cells [3] = type: cell-based, human; conditions: rotenone alone 6.25 μM, 24 h
Protocol: To test neuroprotective activity, SH-SY5Y cells were pre-treated for 1 h with various concentrations of AR71, after which rotenone (6.25 μM) was added and the cells were cultured for another 24 h. […] Co-treatment with AR71 protected cells from the toxic effect of rotenone, resulting in LDH leakage ranging from 10 to 22% only.
The protective effect of AR71 against rotenone-induced toxicity in SH-SY5Y cells was assessed by measuring LDH release. SH-SY5Y cells (6 × 10^3 cells/100 μL/well) were seeded in black 96-well plates Nunclon^TM Delta Surface no. 137101 (ThermoFischer Scientific, Waltham, MA, USA) and cultured overnight. The next day, the medium was removed and replaced with a fresh one with an increasing concentration of AR71 (0.0975–50 μM). After 1 h of compound pre-treatment, the neurotoxin rotenone (6.25 μM) was added, and the cells were cultured for another 24 h. For the negative and positive controls, cells were treated with 0.1% DMSO and 6.25 μM of rotenone alone, respectively. The cells treated with the compound alone were used to compare the effect with those co-treated with rotenone. After 24 h, the level of LDH leakage was measured by the CytoTox-ONE™ Homogeneous Membrane Integrity Assay (Promega, Madison, WI, USA) following the manufacturer’s protocol. Briefly, 100 μL of CytoTox-ONE™ reagent (Promega, Madison, WI, USA) was added to each well, and the cells were incubated for 10 min at room temperature protected from light. The fluorescence was measured using the multimode plate reader Tecan Spark (Tecan, Männedorf, Switzerland) with an excitation wavelength of 560 nm and an emission wavelength of 590 nm.

| SMILES | efficacy in rat models of neuropathic pain [1] | reduction of MMP compared with control cells (SH-SY5Y cells [2]) | LDH leakage vs control cells (SH-SY5Y cells [3]) |
| --- | --- | --- | --- |
| CC(C)N1CCCN(C(=O)C2CCN(c3ccc(C(F)(F)F)nc3)CC2)CC1 [GSK334429] | effective |  |  |
| C=C(C)[C@H]1Cc2c(ccc3c2O[C@@H]2COc4cc(OC)c(OC)cc4[C@@H]2C3=O)O1 [rotenone, reference compound] |  | 67% | twice as much LDH leakage as control cells |
| CNC(=O)c1ccc(Oc2ccc3c(c2)CCN(C2CCC2)CC3)nc1 [GSK189254] | effective |  |  |
